The record followed here is a melting point compilation (Tetko et al.; mined from patent text by program, amines drawn as free bases though some values may be those of a salt).

As usually defined, the melting point is the temperature, or range, at which the solid turns liquid. As to `C=CCOc1ccc(C(=O)Oc2ccc(O[Si](C)(C)C)cc2)cc1`, the melting point stood at 87 °C.
The result for `O=C(Nc1ccccc1OCc1ccccc1)c1nnnn1Cc1ccccc1` reads 140 to 142 °C; that for `COc1ccc(/C=C/[N+](=O)[O-])c(F)c1`, 80 to 82 °C.
In turn, `CCOC(=O)c1cc2c3n(ccc-2n1)CC(CCl)=N3` gave a melting point of 270 to 272 °C.
The figure for `O=[N+]([O-])c1cccnc1NCc1cccs1` is 100 °C; for `CCOC(=O)Cc1nc(-c2ccc(F)cc2)oc1C(C)C` it is 59 to 60 °C; for `COCCCS(=O)(=O)NC(=O)/C=C/c1cc(OCC2CC2)nn1Cc1ccc(C(F)(F)F)cc1Cl` it is 137 to 138 °C.
The result for `Cc1cscc1-c1nc(-c2c(F)cccc2Cl)nn1C` reads 153 to 155 °C.
The result for `COc1cc(NC(=O)C(F)(F)F)cc(OC)c1C(C)=O` reads 172 to 173 °C; that for `O=C(O)CCCc1cccc(OCc2cn(-c3ccc(C(F)(F)F)cn3)nc2C2CCCCC2)c1`, 128 to 129 °C; that for `C=C(CC(=O)Nc1cc(Cl)cc(Cl)c1)C(=O)OCCCC`, 69.5 °C.
In the case of `CCOC(=O)c1ccc2ccccc2c1`, the melting point lay in the range of 35 to 36.5 °C.
The figure for `CCOC(=O)c1ccc(OCCC2CCN(c3ccc(C)nn3)CC2)s1` is 114 °C; for `CCOC(=O)c1ccc(C2=NOC(c3cc(Cl)cc(Cl)c3)(C(F)(F)F)C2)cc1[N+](=O)[O-]` (stereo not drawn) it is 160 to 162 °C; for `CCCOc1ccc(/C=C/C(=O)OC(C)(C)C)cc1-c1nc2c(CCC)nn(C)c2c(=O)[nH]1` it is 167 to 168 °C.
The result for `COc1ccc(CCCNS(=O)(=O)Cc2ccc3[nH]cc(CC#N)c3c2)cc1` reads 131 to 133 °C.
Compound `COC(C)(C(=S)N(C)C)c1ccccn1` (stereo not drawn) gave a melting point of 67.8 to 70 °C.
The result for `CC(CC(C(C)C(C)(C)O)N(C)C)C1CCC2C(O)CCCC12C` (stereo not drawn) reads 180 to 181 °C; that for `COC(=O)c1c(SC)nn(-c2c(Cl)cc(Cl)cc2Cl)c1N`, 160 to 162 °C; that for `CCCN(CCC)Cc1csc(-c2ncn3c2CN(C)C(=O)c2c(Cl)cccc2-3)n1`, 121 to 123 °C.
The result for `COC(=O)CNC(=O)c1ccc(C(=O)NS(=O)(=O)c2ccc(CCNC(=O)CC3CCCCC3)cc2)cn1` reads 178 to 179 °C.
In the case of `Oc1ccc2cc(F)ccc2c1`, the melting point lay in the range of 118 to 120 °C.
The figure for `C/C(=C\c1ccc(O)cc1)c1ccc2c(c1)C(C)(C)CCC2(C)C` is 138 to 140 °C; for `O=c1[nH]ncc2[nH]c(-c3ccc(OC(F)F)c(OC4CC4)c3)c(-c3cn[nH]c3)c12` it is 294 to 297 °C.
The figure for `CCCCCCCCCCCCCCCCCCOc1ccc(OCc2ccccc2)c(C(=O)N(CC(=O)OCC)CC(=O)OCC)c1` is 61 to 62 °C; for `Cc1sc(C(F)(F)F)nc1O` it is 108 to 110 °C; for `CCOC(=O)Cn1nnnc1S(=O)(=O)Cc1ccccc1` it is 105 to 107 °C.
The result for `COc1ccccc1N1CCN(CCCCN2CCN(c3ccccc3)C2=O)CC1` reads 94 to 95 °C; that for `O=C(OC1Oc2ccccc2-n2cnc(-c3noc(C4CC4)n3)c21)c1ccccc1` (stereo not drawn), 165 to 167 °C.
For `CCCC(=O)c1cnc2c(OC)nccc2c1OS(C)(=O)=O`, the melting point was 184 to 185 °C.
The result for `CCOCc1nc2c(N)nc3ccccc3c2n1CCCCS(=O)(=O)Nc1ccc(OC)cc1` reads 229 to 230 °C; that for `CCOC(=O)c1cn(CCc2cccc(F)c2)c2cc(C3CC3)nn2c1=O`, 160 to 165 °C.
The result for `CCOC(=O)C1CC(O)c2c(C)c(O)c(C)c(C)c2O1` (stereo not drawn) reads 138 to 144 °C; that for `Cc1cn(-c2cc(Br)c(N)c(C(F)(F)F)c2)c(C)n1`, 149 °C.
The figure for `COc1ccc(Cn2c(=O)c3c(N4CCN(C)CC4)cc(Cl)cc3n(Cc3ccccc3)c2=O)cc1` is 81 to 89 °C; for `CN1c2ccc(Cl)cc2NC(=S)c2cscc21` it is 238 to 240 °C; for `CN(C)CCn1ccc(-c2ccc(F)cc2)c1-c1ccncc1` it is 70 to 73 °C.
With `CC12CC(F)C3c4ccc(O)cc4CC(CCCCCBr)C3C1CCC2=O` (stereo not drawn), the melting point was found to be 178 °C.
`CCC(=C(c1ccccc1)c1ccc(C=CCO)cc1)c1ccccc1` returned a melting point of 80 to 83 °C.
The figure for `Cc1nc(N2CCc3ccc(F)cc3CC2)c([N+](=O)[O-])c(=O)[nH]1` is > 200 °C; for `Cc1cc2c(c3c1CCC3)OC(CNC(=O)OCc1ccccc1)C2` (stereo not drawn) it is 109 to 113 °C.
The figure for `CCN1C(C(=O)Nc2cncc(Cl)n2)=C(O)c2ccccc2S1(=O)=O` is 233 to 235 °C; for `CC1Cc2cc3c(cc2C(c2ccc(N)cc2)=NN1C(=O)Nc1ccccc1)OCO3` (stereo not drawn) it is 118 to 120 °C.
Compound `C#CC1(c2ccc(OC)c(OC3CCCC3)c2)CCC2(CC1)OCCO2` showed a melting point of 53.5 to 55 °C.
The compound `CCCCc1ccc2c(c1)Cc1cc(C(C)=O)ccc1-2` displayed a melting point of 102 to 104 °C.
The result for `Cc1cn(-c2ccc(F)cc2)c2ccc(Br)cc12` reads 97 to 98 °C; that for `Cc1c(C)c2c(c(C)c1NC(=O)CC(C)(C)C)C(c1ccc(CCCO)cc1)CO2` (stereo not drawn), 119 to 120 °C; that for `NNC1=NCCc2ccccc21`, 55 to 57 °C.
The figure for `COC(=O)c1ccn2c1C(C(=O)OC)CC2` (stereo not drawn) is 70 to 71 °C; for `CC(Oc1ccc(F)cc1)C1CN(c2ccccc2)CCN1` (stereo not drawn) it is 80 to 82 °C.
The figure for `CSc1c(C(Cc2ccccc2)C(=O)O)cc(C)c2c1[nH]c1ccccc12` (stereo not drawn) is 186 to 187 °C; for `CCOC(=O)c1c[nH]c2c(OCOC)ccc(OC)c2c1=O` it is 175 to 177 °C.
`CCOC(=O)C1(c2ccccc2)CCN(CCO)CC1` returned a melting point of 91.5 to 93 °C.
The figure for `COc1cc(Br)c2oc(-c3ccc(OC)c(C(F)(F)F)c3)nc2c1` is 183 to 185 °C; for `CCOC(=O)c1c(C(F)(F)F)nc(C(F)F)c(C(=O)OC)c1OCC` it is 59 to 61 °C.
The compound `Cc1cc(C(=O)O)cc(C)c1OCCNC(=O)C1Cc2ccccc2N1S(=O)(=O)c1ccc(-c2cccc(C(F)(F)F)c2)cc1` (stereo not drawn) returned a melting point of 120 to 126 °C.
The result for `O=C(Nc1cn2cc(Cl)ccc2n1)c1ccc(C2(C(=O)O)CCCCC2)cc1` reads 288 °C.
The figure for `CCCNC(=O)N1C2=NC(C)(C)N(C)C(=O)N2c2ccccc21` is 85 to 87 °C; for `O=C(NCc1ccco1)c1cc2ccnc(Cl)c2[nH]1` it is 205 to 209 °C; for `CCN(CC)c1nsc(NC(=O)NC)c1C#N` it is 182 to 183 °C.
The result for `Cc1ccc2nc(NC(=O)c3ccc(C(C)(C)CCc4nnn[nH]4)cc3)cn2c1` reads 245 to 246 °C; that for `N[C@@H](Cc1ccc(F)cc1)[C@H](O)c1ccc(C(F)(F)F)cc1` (racemic), 130 to 131 °C; that for `CC(c1ccncc1)C(O)(Cn1cncn1)c1ccc(F)cc1F` (stereo not drawn), 161 to 163 °C.
In turn, `CCCCc1nc(C(=O)O)c(S(=O)(=O)c2ccccc2)n1Cc1ccc(-c2ccccc2C(=O)O)cc1` yielded a melting point of 155 °C.
The figure for `CCC1c2cccn2-c2cc(OC)c(F)cc2N1S(=O)(=O)c1ccc(OC)c(C)c1` (stereo not drawn) is 130 to 132 °C.
The figure for `Cc1ccc(C(=O)c2c(Cl)cccc2Cl)cc1` is 109 to 112 °C; for `CC(O)c1cnc2cc(Oc3cc(-c4ccc(C(F)(F)F)cc4)ncn3)ccc2c1` (stereo not drawn) it is 156 to 157 °C.
The figure for `Oc1ccc(OCCCCCCBr)cc1` is 43 to 45 °C; for `COC(=O)CSc1cccc(NC(=O)NCC(=O)N(CC(=O)OC(C)(C)C)c2ccccc2C(=O)c2ccccc2)c1` it is 131 to 133 °C; for `CCOC(=O)CSc1cccc(-c2nc(=O)c3ccccc3s2)n1` it is 124 to 125 °C.
`CCCCCC(=O)NC1(OCC)CC1` registered a melting point of 47 to 48.5 °C.
The figure for `Cc1nc(C(=O)NCCN2CCOCC2)cc(-c2cccc([N+](=O)[O-])c2)c1C(C)O` (stereo not drawn) is 166 to 167 °C; for `Cc1nc(-n2ccc(OCc3ccc(C(F)(F)F)cc3)cc2=O)sc1C(=O)NCc1ccccc1` it is 278 to 280 °C.
The result for `CN(C)C(=O)NS(=O)(=O)c1ccccc1OC(Cl)=CCl` reads 218 to 220 °C; that for `CCOC(=O)C(C)(C)Oc1ccc(-c2ccc(CCNC(=O)c3c(OC)cccc3OC)cc2)cc1`, < 20 °C; that for `O=C(OCC1CC(O)C(n2cc(F)c(=O)[nH]c2=O)O1)c1ccccc1` (stereo not drawn), 154 to 156 °C.
The result for `COc1cc(OC)c(NC(=O)[C@H]2[C@H](c3ccc(S(N)(=O)=O)cc3)C2(C)C)cc1Cl` (relative stereo) reads 248 to 251 °C.
Turning to `O=C(O)Cc1ccc(OCc2ccccc2)c(OCCc2ccccc2)c1`, the melting point lay in the range of 110 to 112 °C.
`O=C(CCCc1ccc(Cl)cc1)c1ccc(OCc2ccc3ccccc3n2)cc1` showed a melting point of 140 to 142 °C.
The result for `O=C(c1cccs1)c1cnn2c(-c3cccc(NC(=S)Nc4cccc(-c5ccnc6c(C(=O)c7cccs7)cnn56)c4)c3)ccnc12` reads 151 to 153 °C.
The figure for `Oc1ccc2c(c1)CCCC(c1ccccc1)=C2c1ccc(OCCCCCCSCc2ccccn2)cc1` is 127 °C; for `CC(C)(C(=O)c1cccnc1)c1ccc(Cl)cc1Cl` it is 103 to 104 °C.
The figure for `FC(F)(F)c1ccc(-c2cc(Oc3cccc4sccc34)ncn2)cc1` is 122 °C; for `CN1CC[C@H](c2ccc(Cl)cc2)[C@@H](O)C1` (racemic) it is 99 to 100 °C; for `O=S(=O)(CCCc1nc(-c2ccc(F)cc2)c(-c2ccncc2)[nH]1)c1ccccc1` it is 109 to 110 °C.
Compound `CCCCCc1ncc([C@H]2CC[C@H](CCC)CC2)cn1` had a melting point of 33 °C.
The figure for `O=C(c1cc(Br)c(O)c(Br)c1)c1c(Cc2ccccc2)oc2ccccc12` is 156 to 158 °C; for `CCC1=C(C)C(=O)NC1C` (stereo not drawn) it is 83 °C.
